Here are results for four compounds from PMC13044524 (Molecular Cancer Therapeutics, 2025).

For series [1], the system named is bone (femur and tibia) of OVX mice. In words: Osteoporosis. The format is in vivo, C57BL/6 mice. The settings on record: 12 weeks of treatment.
For series [2], the system named is MCF-7 cells. In words: Cell proliferation assay, MCF-7. The format is cell-based. The settings on record: Homo sapiens, MCF7, 144 h, read-out: IC50 E2-mediated proliferation.
Series [3] concerns uterine tissue. In words: Rat uterine wet weight assay. The settings on record: immature rats; for uterine wet weight (UWW): once daily for 3 days; for epithelia height of uterine tissue (histologic staining): 3 days, compared with vehicle. The format is in vivo, Sprague–Dawley CD-IGS rats.

As for `C[C@]12CC[C@@H]3c4ccc(O)cc4C[C@@H](CCCCCCCCC[S+]([O-])CCCC(F)(F)C(F)(F)F)[C@H]3[C@@H]1CC[C@@H]2O` (stereo partly drawn) [Fulvestrant], the “bone mineral density (BMD) of femur and tibia” value in series [1] is listed as “further decreased BMD”. For the same compound, the IC50 in series [2] amounted to 0.2 nM. The “uterine wet weight (UWW)” value in series [3] is on record as “seemed to decrease uterine weight”.
As to `C[C@@H]1Cc2c([nH]c3ccccc23)[C@@H](c2c(F)cc(/C=C/C(=O)O)cc2F)N1CC(C)(C)F` [AZD9496, (E)-3-(3,5-Difluoro-4-((1R,3R)-2-(2-fluoro-2-methylpropyl)-3-methyl-2,3,4,9-tetrahydro-1H-pyrido[3,4-b]indol-1-yl)phenyl)acrylic acid], in series [3], the “epithelia height of uterine tissue (histologic staining)” value was “slightly increased” and the “uterine wet weight (UWW)” value is “did not affect uterine weight significantly”.
As to `CC/C(=C(\c1ccccc1)c1ccc(OCCN(C)C)cc1)c1ccccc1` [Tamoxifen], the “bone mineral density (BMD) of femur and tibia” value in series [1] is on record as “significantly increased BMD”. Besides, in series [3], the “epithelia height of uterine tissue (histologic staining)” value was “dramatically increased” and the “uterine wet weight (UWW)” value was “significantly increase UWW”.
Turning to `CCNCCc1ccc(CN(CC)c2cc(OC)ccc2[C@@H]2CCc3cc(O)ccc3C2)cc1` [elacestrant], the IC50 in series [2] was found to be 0.3 nM.
